According to patent publication US20260265199A1, “CRYSTALLINE FORMS OF (R)-2-AMINO-5-(4-(2-(3,5-DIFLUOROPHENYL)-2-HYDROXYACETAMIDO)-2-METHYLPHENYL)-N-ISOPROPYLNICOTINAMIDE AND METHODS FOR USING THE SAME” (HIBERCELL, INC., priority 2023, published 2026):
Where a name gives a salt, the structure may show the parent alone.

Key:
Format in all cases: physicochemical
[1] = Inter-conversion study (competitive slurry) of hemi-fumarate Form A and Form B in IPA; settings: RT and 50° C.
Method: Equal amount of the Form A of the hemi-fumarate salt and the Form B of the hemi-fumarate salt were added into IPA, and the suspensions were stirred at RT or 50° C. for 3 days, respectively. Residual solids were obtained and characterized. […] The overlay of the XRPD pattern from the inter-conversion study of the hemi-fumarate salt is depicted in FIG. 15.

[2] = Physical and chemical stability at 40° C. (75% RH) and 60° C. (XRPD, HPLC); settings: for Physical and chemical stability / XRPD - 29 days / Purity (%) - 29 days: 29 days
Method: (§1) HPLC analysis was performed with an Agilent HPLC 1260 series instrument.
Appropriate amount of the Form A of the hemi-fumarate salt was placed at 40° C. (75% RH) and 60° C. for several days. The solids were analyzed by XRPD (Example 1, XRPD) and HPLC (Example 1, HPLC) at appropriate time points. The physical and chemical stabilities of the Form A of the hemi-fumarate salt was conducted at 60° C. and at 40° C. (75% RH) for 29 days. No obvious degradation occurred and no form change was observed under testing conditions. […] (75% RH) for 29 days.

[3] = Solubility in water and biologically relevant media (SGF, FeSSIF, FaSSIF), HPLC, pH, XRPD; settings: 37° C.; for XRPD of the filter cake: 24 h
Method: as §1
The solubility of the Form A of the hemi-fumarate salt was evaluated in water and biologically relevant media, SGF, FeSSIF, and FaSSIF. About 10 mg of the sample was weighed into sample vials and then 2 mL of three bio-relevant media and water were added to each respective sample to make suspensions. All suspensions were shaken at 37° C. with 200 rpm. […] The XRPD pattern from the solubility test of the Form A of the hemi-fumarate salt of the compound of formula (I) is depicted in FIG. 12.

[4] = Slurry study of Form A of the hemi-fumarate salt (XRPD of solids); settings: room temperature, three days (footnote *)

## Cc1cc(NC(=O)[C@H](O)c2cc(F)cc(F)c2)ccc1-c1cnc(N)c(C(=O)NC(C)C)c1 [Form A of the hemi-fumarate salt, (R)-2-amino-5-(4-(2-(3,5-difluorophenyl)-2-hydroxyacetamido)-2-methylphenyl)-N-isopropylnicotinamide]
[1]
  Relative stability of hemi-fumarate Form A vs Form B: more stable form
[2]; 40° C. (75% RH), HPLC
  Purity (%) - 8 days: 99.86%
  Purity (%) - 29 days: 99.92%
[2]; 40° C. (75% RH)
  Physical and chemical stability: physically and chemically stable
  XRPD - 29 days: No Change
[2]; 60° C., HPLC
  Purity (%) - 8 days: 99.86%
  Purity (%) - 29 days: 99.91%
[2]; 60° C.
  Physical and chemical stability: physically and chemically stable
  XRPD - 29 days: No Change
[2]; Starting material (before storage), HPLC
  Purity (%): 99.87%
[3]; FaSSIF, 0.5 hours
  pH of the filtrate: 6.39
[3]; FaSSIF, 2 hours
  pH of the filtrate: 6.36
[3]; FaSSIF
  XRPD of the filter cake: exhibited dissociation into the free base Form
[3]; FaSSIF, listed as Form A of the Hemi-Fumarate Salt
  XRPD of the filter cake: Changed
[3]; FaSSIF, 24 hours
  pH of the filtrate: 5.57
[3]; FeSSIF, 0.5 hours
  pH of the filtrate: 5.14
[3]; FeSSIF, 2 hours
  pH of the filtrate: 4.88
[3]; FeSSIF
  XRPD of the filter cake: exhibited dissociation into the free base Form
[3]; FeSSIF, listed as Form A of the Hemi-Fumarate Salt
  XRPD of the filter cake: Changed
[3]; FeSSIF, 24 hours
  pH of the filtrate: 4.71
[3]; SGF vs FeSSIF, FaSSIF and water
  Solubility comparison between media: more soluble in SGF than in FeSSIF, FaSSIF, and water
[3]; SGF, 0.5 hours
  pH of the filtrate: 1.12
[3]; SGF, 2 hours
  pH of the filtrate: 1.10
[3]; SGF
  XRPD of the filter cake: No XRPD pattern change was observed
[3]; SGF, 24 hours
  pH of the filtrate: 1.36
[3]; Water, 0.5 hours
  pH of the filtrate: 3.77
[3]; Water, 2 hours
  pH of the filtrate: 2.97
[3]; Water
  XRPD of the filter cake: exhibited dissociation into the free base Form
[3]; Water, listed as Form A of the Hemi-Fumarate Salt
  XRPD of the filter cake: Changed
[3]; Water, 24 hours
  pH of the filtrate: 2.91
[3]; pH 1.36, simulated gastric fluid, thermodynamic from solid, SGF, 24 hours
  solubility at 24 h: 4370 µg/mL
[3]; pH 2.91, thermodynamic from solid, Water, 24 hours
  solubility at 24 h: 81 µg/mL
[3]; pH 2.97, thermodynamic from solid, Water, 2 hours
  solubility at 2 h: 81 µg/mL
[3]; pH 3.77, thermodynamic from solid, Water, 0.5 hours
  solubility at 0.5 h: 10 µg/mL
[3]; pH 4.71, thermodynamic from solid, FeSSIF, 24 hours
  solubility at 24 h: 41 µg/mL
[3]; pH 4.88, thermodynamic from solid, FeSSIF, 2 hours
  solubility at 2 h: 149 µg/mL
[3]; pH 5.14, thermodynamic from solid, FeSSIF, 0.5 hours
  solubility at 0.5 h: 214 µg/mL
[3]; pH 5.57, thermodynamic from solid, FaSSIF, 24 hours
  solubility at 24 h: 29 µg/mL
[3]; pH 6.36, thermodynamic from solid, FaSSIF, 2 hours
  solubility at 2 h: 16 µg/mL
[3]; pH 6.39, thermodynamic from solid, FaSSIF, 0.5 hours
  solubility at 0.5 h: 22 µg/mL
[3]; simulated gastric fluid, thermodynamic from solid, SGF, 0.5 hours
  solubility at 0.5 h: 4290 µg/mL
[3]; simulated gastric fluid, thermodynamic from solid, SGF, 2 hours
  solubility at 2 h: 4230 µg/mL
[4]; Heptane
  XRPD result after slurry: Form A*
[4]; IPAc
  XRPD result after slurry: Form A*
[4]; Toluene
  XRPD result after slurry: Form A*
